According to patent US7846905B2, “Agent for inhibiting visceral fat accumulation” (Morinaga Milk Industry Co., Ltd., priority 2005, dated 2010):

Legend:
[1] = tested on: ZDF (Zucker Diabetic Fatty) rats; assay: Inhibitory effect on visceral fat accumulation: mesenteric fat weight in ZDF rats (Example 1); assay type: in vivo; details: for Mesenteric fat weight: ZDF rats on high-fat diet, oral once a day for 44 days, measured on 45th day, A-1 25 μg/kg, A-2 2.5 μg/kg compound, B-1 2.5 g/kg, B-2 0.125 g/kg Aloe vera solid content; for Mesenteric fat weight as compared with the group administered with the negative sample (decrease to) / Effect of inhibiting visceral fat accumulation (statistical significance, Tukey-Kramer's test): ZDF rats, 45th day; for Mesenteric fat weight as compared with the group administered with the negative sample (decrease to): negative sample 6.83±1.10 g; for Effect of inhibiting visceral fat accumulation (statistical significance, Tukey-Kramer's test): versus negative sample
Experimental: The squeezed liquid of Aloe vera gel was diluted 20 folds to prepare Test Sample B-2.
On 45th day from the initiation of the administration, mesenteric fat weights were measured as the visceral fat.

[2] = rat, in vivo
Experimental: This example was performed in order to investigate an effect of 3-O-β-D-glucopyranosyl-4-methylergost-7-en-3-ol and a squeezed liquid of Aloe vera on an amount of food ingestion (amount of food consumption) and increase in body weight (amount of increased body weight) of rats.
The sample was dissolved in DMSO, and the concentration of the sample was adjusted with distilled water to 10 μg/ml, to thereby prepare Test Sample C. Meanwhile, a crude solution was obtained by crushing Aloe vera gel with a juicer, and then was subjected to filtration with a No. 200 mesh (manufactured by NBC), to thereby obtain a squeezed liquid of the Aloe vera gel as Test Sample D. It was confirmed that the crush extract of Aloe vera gel contained 0.1% of 3-O-β-D-glucopyranosyl-4-methylergost-7-en-3-ol by mass. In addition, final concentration of DMSO was adjusted to 0.2%. […]
42 days after initiation of the administration, the body weights of the rats were measured, and differences between the body weights on the 42nd day and those measured before the initiation of the administration were regarded as amounts of increased body weights. In addition, weights of food consumed per day were measured once a week from the day of the initiation of the administration, and an average of the weights was regarded as an amount of food consumption per day.

hemoglobin A1c level = details: WO 2005/095436; cited from earlier work

CC(C)C(C)CCC(C)C1CCC2C3=CCC4C(C)C(OC5OC(CO)C(O)C(O)C5O)CCC4(C)C3CCC21C [Test Sample A-1, 3-O-β-D-glucopyranosyl-4-methylergost-7-en-3-ol]
Mesenteric fat weight [1]: 3.15 ± 0.28 g | Mesenteric fat weight as compared with the group administered with the negative sample (decrease to) [1]: 46.2% | Effect of inhibiting visceral fat accumulation (statistical significance, Tukey-Kramer's test) [1]: statistically significant effects of inhibiting visceral fat accumulation

CC(C)C(C)CCC(C)C1CCC2C3=CCC4C(C)C(OC5OC(CO)C(O)C(O)C5O)CCC4(C)C3CCC21C [Test Sample A-2, 3-O-β-D-glucopyranosyl-4-methylergost-7-en-3-ol]
Mesenteric fat weight [1]: 4.99 ± 0.53 g | Mesenteric fat weight as compared with the group administered with the negative sample (decrease to) [1]: 73.1% | Effect of inhibiting visceral fat accumulation (statistical significance, Tukey-Kramer's test) [1]: statistically significant effects of inhibiting visceral fat accumulation

CC(C)C(C)CCC(C)C1CCC2C3=CCC4C(C)C(OC5OC(CO)C(O)C(O)C5O)CCC4(C)C3CCC21C [Compound 1, 3-O-β-D-glucopyranosyl-4-methylergost-7-en-3-ol]
Amount of food consumption as compared with the negative sample group [2]: does not affect the amount of food ingestion | Effect on hemoglobin A1c level and hyperglycemia (hemoglobin A1c level): effect of decreasing hemoglobin A1c level and improving hyperglycemia

CC(C)C(C)CCC(C)C1CCC2C3=CCC4C(C)C(OC5OC(CO)C(O)C(O)C5O)CCC4(C)C3CCC21C [Test Sample C, 3-O-β-D-glucopyranosyl-4-methylergost-7-en-3-ol]
Amount of food consumption as compared with the negative sample group [2]: did not show significant increase or decrease in amount of food consumption
